Measurements from article PMC11997999, “Uncovering α-Selectivity for Liver X Receptor Agonists for Lipotoxic Cancer Therapies” (Journal of Medicinal Chemistry, 2025).

Tested on: VDR, PPARα, PPARγ, ERα, ERβ, FXR, AhR, mCAR
Assay: Nuclear receptor panel screening, luciferase reporter assays in HepG2 cells
Format: cell-based
Conditions: HepG2, 10 μM, 24 h
Protocol: To examine the specificity of compound 40 (and as a control compound 46) toward other nuclear receptors, we assessed their activity in activating eight critical nuclear receptors with cellular reporter assays at saturating concentrations (10 μM). We chose nuclear receptors that are either known to directly or indirectly regulate metabolic processes in the liver, including vitamin D receptor (VDR), peroxisome proliferator-activated receptors α and γ (PPAR α and γ), estrogen receptor α and β (ERα and β) and farnesoid X receptor (FXR) or are relevant in drug metabolism such as aryl hydrocarbon receptor (AhR) and the mice constitutive androstane receptor (mCAR).
For nuclear receptor panel screening, the HepG2 cell line (obtained by American Type Culture Collection) was maintained in DMEM (Gibco) supplemented with 10% FBS+ 1% nonessential amino acids medium and incubated at 37 °C. Plasmids for mouse constitutive androstane receptor (mCAR) and its luciferase gene reporter construct p2B6-luc have been described in Mejdrová et al.[24] Other luciferase reporter constructs have been described in Stefela et al.[25] The transient transfection experiments were performed on 48-well format plates 24 h after cell seeding (1.1 × 10^5 per well). The Lipofectamine 3000 transfection reagent was used according to the manufacturer’s instructions. […]

## O=C1C(Nc2ccc(N3CCCCC3)cc2)=C(c2ccccc2)C(=O)N1Cc1ccccc1 [Compound 40, 1-Benzyl-3-phenyl-4-((4-(piperidin-1-yl)phenyl)amino)-1H-pyrrole-2,5-dione]
  activation of eight other nuclear receptors: no relevant activation
